Values quoted from earlier work in patent US7915306B2, “Macrocyclic compounds useful as pharmaceuticals” (Eisai Co., Ltd., priority 2002, dated 2011).
Like-named read-outs stand apart in the source and are kept apart here.

Columns and labels:
[1] = human plasma
[2] = mouse plasma

- inhibition of Map/Erk kinase (MEK) (Map/Erk kinase (MEK)): inhibit
- biological stability (enone isomerization) [1]: susceptible to enone isomerization
- biological stability (enone isomerization) [2]: susceptible to enone isomerization
Structure (SMILES): COc1cc(O)c2c(c1)/C=C/C[C@H](O)[C@H](O)C(=O)/C=C\C[C@H](C)OC2=O [F152]
